Some targets named below: human CYP2C9 (Homo sapiens, UniProt P11712); human CYP2C19 (Homo sapiens, UniProt P33261); human CYP2D6 (Homo sapiens, UniProt P10635); CYP3A4 (Homo sapiens, UniProt P08684).
Another data set deals with T1, human CYP1A2 (Homo sapiens, UniProt P05177).
T1 sequence (P05177 1-516): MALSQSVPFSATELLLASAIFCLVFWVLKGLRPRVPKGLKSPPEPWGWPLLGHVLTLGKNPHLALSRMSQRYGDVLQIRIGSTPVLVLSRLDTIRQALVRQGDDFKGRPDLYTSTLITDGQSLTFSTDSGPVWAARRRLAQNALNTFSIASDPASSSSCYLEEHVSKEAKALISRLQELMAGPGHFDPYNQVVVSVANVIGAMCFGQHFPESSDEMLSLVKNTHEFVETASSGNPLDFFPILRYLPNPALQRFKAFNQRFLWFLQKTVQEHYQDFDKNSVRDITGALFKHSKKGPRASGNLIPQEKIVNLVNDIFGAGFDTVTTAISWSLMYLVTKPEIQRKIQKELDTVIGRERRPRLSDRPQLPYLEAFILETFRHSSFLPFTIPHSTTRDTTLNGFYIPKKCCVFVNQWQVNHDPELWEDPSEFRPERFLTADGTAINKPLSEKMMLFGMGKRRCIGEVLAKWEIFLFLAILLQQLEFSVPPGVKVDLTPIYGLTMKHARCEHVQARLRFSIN

CYP3A4, sequence (P08684 whole entry): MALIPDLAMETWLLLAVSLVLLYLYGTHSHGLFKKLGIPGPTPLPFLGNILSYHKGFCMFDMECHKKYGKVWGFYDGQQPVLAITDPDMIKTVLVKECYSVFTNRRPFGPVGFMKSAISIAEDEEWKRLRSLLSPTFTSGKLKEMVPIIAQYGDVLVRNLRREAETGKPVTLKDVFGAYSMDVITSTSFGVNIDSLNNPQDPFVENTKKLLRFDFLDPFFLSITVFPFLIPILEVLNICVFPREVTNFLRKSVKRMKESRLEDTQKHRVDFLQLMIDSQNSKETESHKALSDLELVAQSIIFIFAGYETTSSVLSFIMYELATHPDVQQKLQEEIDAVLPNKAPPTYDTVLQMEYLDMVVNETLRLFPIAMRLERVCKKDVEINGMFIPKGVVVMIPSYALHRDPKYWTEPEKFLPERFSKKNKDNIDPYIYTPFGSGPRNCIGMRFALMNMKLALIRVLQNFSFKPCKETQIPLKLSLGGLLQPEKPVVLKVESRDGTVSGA
human CYP2C9, sequence (P11712 whole entry): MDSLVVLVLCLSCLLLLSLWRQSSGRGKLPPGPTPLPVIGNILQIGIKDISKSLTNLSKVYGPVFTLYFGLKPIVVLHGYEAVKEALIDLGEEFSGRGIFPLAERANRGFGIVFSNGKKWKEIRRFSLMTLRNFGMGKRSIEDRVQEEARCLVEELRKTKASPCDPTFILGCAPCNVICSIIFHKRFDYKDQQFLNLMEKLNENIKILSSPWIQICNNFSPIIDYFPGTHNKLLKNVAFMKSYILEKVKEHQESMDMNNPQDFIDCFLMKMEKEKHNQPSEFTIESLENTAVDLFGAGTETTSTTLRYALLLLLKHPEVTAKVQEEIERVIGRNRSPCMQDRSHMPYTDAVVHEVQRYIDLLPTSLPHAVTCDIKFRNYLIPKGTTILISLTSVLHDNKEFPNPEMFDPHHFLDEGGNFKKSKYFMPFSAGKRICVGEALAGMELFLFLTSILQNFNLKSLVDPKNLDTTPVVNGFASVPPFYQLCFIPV
human CYP2D6, sequence (P10635 whole entry): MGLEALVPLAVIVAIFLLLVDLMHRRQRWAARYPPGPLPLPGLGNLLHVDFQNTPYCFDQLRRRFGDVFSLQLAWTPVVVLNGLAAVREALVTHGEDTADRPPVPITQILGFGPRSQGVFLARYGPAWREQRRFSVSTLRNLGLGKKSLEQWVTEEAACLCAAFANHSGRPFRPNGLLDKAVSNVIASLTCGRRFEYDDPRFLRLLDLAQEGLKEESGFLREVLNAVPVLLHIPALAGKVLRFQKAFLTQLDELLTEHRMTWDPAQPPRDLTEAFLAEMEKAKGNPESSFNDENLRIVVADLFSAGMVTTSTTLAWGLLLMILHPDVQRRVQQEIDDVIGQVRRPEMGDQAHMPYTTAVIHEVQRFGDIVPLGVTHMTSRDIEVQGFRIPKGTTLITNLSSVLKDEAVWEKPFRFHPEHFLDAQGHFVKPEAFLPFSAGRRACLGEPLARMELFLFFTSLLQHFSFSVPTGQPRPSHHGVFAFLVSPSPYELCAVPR
human CYP2C19, sequence (P33261 whole entry): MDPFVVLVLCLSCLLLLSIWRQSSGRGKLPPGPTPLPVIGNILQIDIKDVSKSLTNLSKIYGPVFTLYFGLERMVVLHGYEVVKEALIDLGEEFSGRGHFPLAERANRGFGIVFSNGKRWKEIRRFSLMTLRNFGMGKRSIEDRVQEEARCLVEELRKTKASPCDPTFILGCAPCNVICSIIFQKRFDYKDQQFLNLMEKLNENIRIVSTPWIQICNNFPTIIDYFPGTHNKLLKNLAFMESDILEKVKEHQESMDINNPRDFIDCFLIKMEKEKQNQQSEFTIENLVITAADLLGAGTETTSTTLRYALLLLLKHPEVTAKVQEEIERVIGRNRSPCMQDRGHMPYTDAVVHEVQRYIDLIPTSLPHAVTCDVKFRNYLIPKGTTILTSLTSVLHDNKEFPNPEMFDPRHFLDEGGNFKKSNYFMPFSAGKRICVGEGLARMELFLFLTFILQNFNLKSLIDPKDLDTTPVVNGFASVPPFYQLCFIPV

Regarding `CCCCCCCCCCCCCOP(=O)(O)O` [Monotridecyl phosphate], the AC50 (as a rule, the concentration giving half of the maximal activity seen) at human CYP1A2 came out at 65.1 µM; on human CYP2C9, 56.7 µM; at human CYP2C19 it was 45.5 µM; at CYP3A4, 89.4 µM. The “CYP2D6 AC50 (half-maximal activity concentration)” value (“CYP2D6 AC50” below) on human CYP2D6 is “Inactive”.

As for `C=Cc1ccc(S(=O)(=O)[O-])cc1.[Na+]` [Sodium 4-vinylbenzenesulfonate], the AC50 amounted to 63.5 µM on human CYP1A2 and 30.1 µM at CYP3A4. The “CYP2C9 AC50 (half-maximal activity concentration)” value (“CYP2C9 AC50” below) on human CYP2C9 is given as “Inactive”. Further, the “CYP2C19 AC50 (half-maximal activity concentration)” value (shortened to “CYP2C19 AC50”) at human CYP2C19 is given as “Inactive”. In addition, on human CYP2D6, the “CYP2D6 AC50” value was “Inactive”.

Turning to `O=C(O)c1cc2ccccc2nc1C(=O)O` [2,3-Quinolinedicarboxylic acid], the AC50 on human CYP1A2 worked out at 47.9 µM; at CYP3A4, 25.2 µM. Moreover, at human CYP2C9, the “CYP2C9 AC50” value is “Inactive”. Moreover, the “CYP2C19 AC50” value at human CYP2C19 is on record as “Inactive”. In addition, on human CYP2D6, the “CYP2D6 AC50” value was “Inactive”.

With `O=C(c1ccc(O)cc1)c1ccc(O)cc1O` [2,4,4'-Trihydroxybenzophenone], the AC50 on human CYP1A2 amounted to 34.3 µM; at human CYP2C9, 3.18 µM; at human CYP2D6, 33 µM; on CYP3A4, 19.4 µM. Besides, the “CYP2C19 AC50” value at human CYP2C19 was “Inactive”.

Regarding `CC1=Nc2ccc3ccccc3c2C1(C)C` [1,1,2-Trimethyl-1H-benzo[e]indole], the AC50 on human CYP1A2 is 26.7 µM; at human CYP2C9, 51.7 µM; at human CYP2C19, 10.1 µM; at human CYP2D6 it was 54 µM; on CYP3A4, 2.84 µM.

Consider `CC(C)N1C(=O)c2ccccc2C1=O` [N-Isopropylphthalimide], for which the AC50 at human CYP1A2 is 35.6 µM; at CYP3A4 it was 57.7 µM. The “CYP2C9 AC50” value at human CYP2C9 was “Inconclusive inhibitor”. In addition, the “CYP2C19 AC50” value at human CYP2C19 was “Inactive”. Further, the “CYP2D6 AC50” value on human CYP2D6 is on record as “Inactive”.

On to `CC(c1ccc(O)cc1)c1ccc(O)cc1` [Bisphenol E], for which the “CYP1A2 AC50 (half-maximal activity concentration)” value at human CYP1A2 is listed as “Inactive”. In addition, the results for the AC50 on human CYP2C9 and at human CYP2C19 were 38.6 µM and 33.5 µM, respectively. For the same compound, at human CYP2D6, the “CYP2D6 AC50” value is “Inactive”. Besides, the “CYP3A4 AC50 (half-maximal activity concentration)” value on CYP3A4 was “Inconclusive inhibitor”.

Regarding `O=C(NCc1ncc(C(F)(F)F)cc1Cl)c1c(Cl)cccc1Cl` [Fluopicolide], the AC50 on human CYP1A2 came to 33 µM; at human CYP2C9 it was 4.13 µM; at human CYP2C19 it was 18.6 µM; at human CYP2D6, 6.57 µM; at CYP3A4 it was 12.6 µM.

For the compound `O=C(Cc1ccccc1)OCc1ccccc1` [Benzyl phenylacetate], the AC50 stood at 12.7 µM on human CYP1A2; 35.8 µM at human CYP2C9; 13.5 µM at human CYP2C19; 66.3 µM at human CYP2D6; 11.5 µM on CYP3A4.

On to `CCCCC/C(=C\c1ccccc1)CO` [alpha-Amylcinnamyl alcohol], for which the AC50 at human CYP1A2 stood at 3.72 µM; at human CYP2C9 it was 36.6 µM; at human CYP2C19, 1.66 µM; on CYP3A4 it was 13.7 µM. Besides, the “CYP2D6 AC50” value at human CYP2D6 is on record as “Inconclusive inhibitor”.

Take `C=C(C)C(=O)OCCCCCCOC(=O)C(=C)C` [1,6-Hexanediol dimethacrylate]: the AC50 is 37 µM on human CYP1A2, 37.4 µM on human CYP2C9, 51.5 µM at human CYP2C19 and 16.9 µM at CYP3A4. Also, the “CYP2D6 AC50” value on human CYP2D6 is “Inactive”.

For the compound `CC(C)c1ccc2sc3ccccc3c(=O)c2c1` [2-(Propan-2-yl)-9H-thioxanthen-9-one], the AC50 amounted to 7.68 µM at human CYP1A2; 15.6 µM on human CYP2C9; 13.1 µM at human CYP2C19; 27.5 µM at human CYP2D6; 7.71 µM on CYP3A4.

Take `CCOC(=O)C(C#N)=C(c1ccccc1)c1ccccc1` [Ethyl 2-cyano-3,3-diphenylacrylate]: the AC50 on human CYP1A2 was 1.87 µM; on human CYP2C9, 3.75 µM; on human CYP2C19, 4.01 µM; on CYP3A4, 7.23 µM. For the same compound, the “CYP2D6 AC50” value at human CYP2D6 is recorded as “Inconclusive inhibitor”.

Values taken from PMC12155096 (International Journal of Molecular Sciences, 2025).
